From EP2951180B1, “2,6,7,8 SUBSTITUTED PURINES AS HDM2 INHIBITORS” (Merck Sharp & Dohme Corp., priority 2013, dated 2014)

These compounds were tested against T1, HDM2 (Homo sapiens, UniProt Q00987) (assay: HDM2 FRET assay (inhibition of binding of FITC labeled p53-pocket peptide to HDM2)). Settings: Table 9; read-out: FRET IC50.
T1 construct: Thioredoxin (N); made in house; host or cells: E. coli strain BL21(DE3)Rosetta
In short: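 TR-FRET with 0.5 nM His-tagged recombinant HDM2, 3 nM FITC-labelled p53 peptide and 0.25 nM Tb-anti-His antibody in PBS, 0.01% BSA, 0.01% Tween-20, 0.1% DMSO. IC50 from em520/em495 ratio over 10-point dilutions, 4-parameter logistic fit.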

T1 sequence (Q00987 17-125): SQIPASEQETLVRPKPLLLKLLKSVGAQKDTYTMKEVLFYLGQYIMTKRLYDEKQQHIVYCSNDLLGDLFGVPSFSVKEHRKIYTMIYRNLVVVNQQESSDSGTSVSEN

Row | SMILES | IC50
1 | C[C@@H](Nc1nc(C(=O)O)nc2nc(N(C)[C@@H](C)c3ccccc3)n(Cc3ccc(C(F)(F)F)cc3)c12)C1CCC1 [Example 9.37, 6-{[(1R)-1-cyclobutylethyl]amino}-8-{methyl[(1S)-1-phenylethyl]amino}-7-[4-(trifluoromethyl)benzyl]-7H-purine-2-carboxylic acid] | 21.6 nM
2 | C[C@@H](Nc1nc(C(=O)O)nc2nc(NC(=O)c3ccccc3)n(Cc3ccc(C(F)(F)F)cc3)c12)C1CCC1 [Example 9.38] | 657 nM
3 | C[C@H](Nc1nc2nc(C(=O)O)nc(N[C@H](C)C3CCC3)c2n1Cc1ccc(C(F)(F)F)cc1)c1cccc(F)c1 [Example 9.39, 6-{[(1R)-1-cyclobutylethyl]amino}-8-{[(1S)-1-(3-fluorophenyl)ethyl]amino}-7-[4-(trifluoromethyl)benzyl]-7H-purine-2-carboxylic acid] | 0.753 nM
4 | CC1CCCN(c2nc3nc(C(=O)O)nc(N[C@H](C)C4CCC4)c3n2Cc2ccc(C(F)(F)F)cc2)C1 (stereo partly drawn) [Example 9.40, 6-{[(1R)-1-cyclobutylethyl]amino}-8-(3-methylpiperidin-1-yl)-7-[4-(trifluoromethyl)benzyl]-7H-purine-2-carboxylic acid] | 12.2 nM
5 | C[C@@H](Nc1nc(C(=O)O)nc2nc(N3CCCC(c4ccccc4)C3)n(Cc3ccc(C(F)(F)F)cc3)c12)C1CCC1 (stereo partly drawn) [Example 9.41, 6-{[(1R)-1-cyclobutylethyl]amino}-8-(3-phenylpiperidin-1-yl)-7-[4-(trifluoromethyl)benzyl]-7H-purine-2-carboxylic acid] | 27.3 nM
6 | CC(C)CC(=O)Nc1nc2nc(C(=O)O)nc(N[C@H](C)C3CCC3)c2n1Cc1ccc(C(F)(F)F)cc1 [Example 9.42, 6-{[(1R)-1-cyclobutylethyl]amino}-8-[(3-methylbutanoyl)amino]-7-[4-(trifluoromethyl)benzyl]-7H-purine-2-carboxylic acid] | 324 nM
7 | C[C@@H](Nc1nc(C(=O)O)nc2nc(NC(=O)C3CCCCC3)n(Cc3ccc(C(F)(F)F)cc3)c12)C1CCC1 [Example 9.43, 6-{[(1R)-1-cyclobutylethyl]amino}-8-[(cyclohexylcarbonyl)amino]-7-[4-(trifluoromethyl)benzyl]-7H-purine-2-carboxylic acid] | 343 nM
8 | C[C@@H](Nc1nc(C(=O)O)nc2nc(N3CCCCC3c3ccccc3)n(Cc3ccc(C(F)(F)F)cc3)c12)C1CCC1 (stereo partly drawn) [Example 9.44, 6-{[(1R)-1-cyclobutylethyl]amino}-8-(2-phenylpiperidin-1-yl)-7-[4-(trifluoromethyl)benzyl]-7H-purine-2-carboxylic acid] | 3.67 nM
9 | C[C@@H](Nc1nc(C(=O)O)nc2nc(N3CCCC(C)(C)C3)n(Cc3ccc(C(F)(F)F)cc3)c12)C1CCC1 [Example 9.45, 6-{[(1R)-1-cyclobutylethyl]amino}-8-(3,3-dimethylpiperidin-1-yl)-7-[4-(trifluoromethyl)benzyl]-7H-purine-2-carboxylic acid] | 7.57 nM
10 | CC(C)C1CCCN(c2nc3nc(C(=O)O)nc(N[C@H](C)C4CCC4)c3n2Cc2ccc(C(F)(F)F)cc2)C1 (stereo partly drawn) [Example 9.46, 6-{[(1R)-1-cyclobutylethyl]amino}-8-[3-(1-methylethyl)piperidin-1-yl]-7-[4-(trifluoromethyl)benzyl]-7H-purine-2-carboxylic acid] | 26.2 nM
11 | CCCN(c1nc2nc(C(=O)O)nc(N[C@H](C)C3CCC3)c2n1Cc1ccc(C(F)(F)F)cc1)[C@@H](C)c1ccccc1 [Example 9.49, 6-{[(1R)-1-cyclobutylethyl]amino}-8-{[(1S)-1-phenylethyl] (propyl)amino}-7-[4-(trifluoromethyl)benzyl]-7H-purine-2-carboxylic acid] | 22.8 nM
12 | C[C@@H](Nc1nc(C(=O)O)nc2nc(N3CCOC[C@H]3c3ccccc3)n(Cc3ccc(C(F)(F)F)cc3)c12)C1CCC1 [Example 9.50, 6-{[(1R)-1-cyclobutylethyl]amino}-8-[(3R)-3-phenylmorpholin-4-yl]-7-[4-(trifluoromethyl)benzyl]-7H-purine-2-carboxylic acid] | 1.76 nM
13 | C[C@@H](Nc1nc(C(=O)O)nc2nc(N3CCOC[C@@H]3c3ccccc3)n(Cc3ccc(C(F)(F)F)cc3)c12)C1CCC1 [Example 9.51, 6-{[(1R)-1-cyclobutylethyl]amino}-8-[(3S)-3-phenylmorpholin-4-yl]-7-[4-(trifluoromethyl)benzyl]-7H-purine-2-carboxylic acid] | 120 nM
14 | C[C@@H](Nc1nc(C(=O)O)nc2nc(N3CCCC3c3ccccc3)n(Cc3ccc(C(F)(F)F)cc3)c12)C1CCC1 (stereo partly drawn) [Example 9.52, 6-{[(1R)-1-cyclobutylethyl]amino}-8-(2-phenylpyrrolidin-1-yl)-7-[4-(trifluoromethyl)benzyl]-7H-purine-2-carboxylic acid] | 31.9 nM
15 | C[C@@H](Nc1nc(C(=O)O)nc2nc(N3CCCCC3c3ccccn3)n(Cc3ccc(C(F)(F)F)cc3)c12)C1CCC1 (stereo partly drawn) [Example 9.53, 6-{[(1R)-1-cyclobutylethyl]amino}-8-(2-pyridin-2-ylpiperidin-1-yl)-7-[4-(trifluoromethyl)benzyl]-7H-purine-2-carboxylic acid] | 26.4 nM
16 | C[C@@H](Nc1nc(C(=O)O)nc2nc(N3CCC3c3ccccc3)n(Cc3ccc(C(F)(F)F)cc3)c12)C1CCC1 (stereo partly drawn) [Example 9.54, 6-{[(1R)-1-cyclobutylethyl]amino}-8-(2-phenylazetidin-1-yl)-7-[4-(trifluoromethyl)benzyl]-7H-purine-2-carboxylic acid] | 23.9 nM
17 | C[C@@H](Nc1nc(-c2noc(=O)[nH]2)nc2nc(N3CCOC[C@H]3c3ccccc3)n(Cc3ccc(C(F)(F)F)cc3)c12)C1CCC1 [Example 9.57, 3-(6-{[(1R)-1-cyclobutylethyl]amino}-8-[(3R)-3-phenylmorpholin-4-yl]-7-[4-(trifluoromethyl)benzyl]-7H-purin-2-yl)-1,2,4-oxadiazol-5(4H)-one] | 1.72 nM
18 | CC[C@@H](c1ccccc1)N(C)c1nc2nc(C(=O)O)nc(N[C@H](C)C3CCC3)c2n1Cc1ccc(C(F)(F)F)cc1 [Example 9.58, 6-{[(1R)-1-cyclobutylethyl]amino}-8-{methyl[(1S)-1-phenylpropyl]amino}-7-[4-(trifluoromethyl)benzyl]-7H-purine-2-carboxylic acid] | 16.4 nM
19 | Cc1cc(C)n(-c2nc3nc(C(=O)O)nc(N[C@H](C)C4CCC4)c3n2Cc2ccc(C(F)(F)F)cc2)n1 [Example 9.59, 6-{[(1R)-1-cyclobutylethyl]amino}-8-(3,5-dimethyl-1H-pyrazol-1-yl)-7-[4-(trifluoromethyl)benzyl]-7H-purine-2-carboxylic acid] | 292 nM
20 | C[C@@H](Nc1nc(C(=O)O)nc2nc(N3CCCC3c3cccc(F)c3)n(Cc3ccc(C(F)(F)F)cc3)c12)C1CCC1 (stereo partly drawn) [Example 9.60, 6-{[(1R)-1-cyclobutylethyl]amino}-8-[2-(3-fluorophenyl)pyrrolidin-1-yl]-7-[4-(trifluoromethyl)benzyl]-7H-purine-2-carboxylic acid] | 10.2 nM
21 | Cc1cc(-c2ccccc2)nn1-c1nc2nc(C(=O)O)nc(N[C@H](C)C3CCC3)c2n1Cc1ccc(C(F)(F)F)cc1 [Example 9.61, 6-{[(1R)-1-cyclobutylethyl]amino}-8-(5-methyl-3-phenyl-1H-pyrazol-1-yl)-7-[4-(trifluoromethyl)benzyl]-7H-purine-2-carboxylic acid] | 300 nM
22 | C[C@@H](Nc1nc(C(=O)O)nc2nc(N3CCCC[C@@H]3c3ccccc3)n(Cc3ccc(C(F)(F)F)cc3)c12)C1CCC1 [Example 9.62, 6-{[(1R)-1-cyclobutylethyl]amino}-8-[(2R)-2-phenylpiperidin-1-yl]-7-[4-(trifluoromethyl)benzyl]-7H-purine-2-carboxylic acid] | 17.3 nM
23 | C[C@@H](Nc1nc(C(=O)O)nc2nc(N3CCCC[C@H]3c3ccccc3)n(Cc3ccc(C(F)(F)F)cc3)c12)C1CCC1 [Example 9.63, 6-{[(1R)-1-cyclobutylethyl]amino}-8-[(2S)-2-phenylpiperidin-1-yl]-7-[4-(trifluoromethyl)benzyl]-7H-purine-2-carboxylic acid] | 3.06 nM
24 | CC(C)CC1COCCN1c1nc2nc(C(=O)O)nc(N[C@H](C)C3CCC3)c2n1Cc1ccc(C(F)(F)F)cc1 (stereo partly drawn) [Example 9.66, 6-{[(1R)-1-cyclobutylethyl]amino}-8-[3-(2-methylpropyl)morpholin-4-yl]-7-[4-(trifluoromethyl)benzyl]-7H-purine-2-carboxylic acid] | 6.07 nM
25 | C[C@@H](Nc1nc(-c2noc(=O)[nH]2)nc2nc(N3CCCCC3c3ccccc3)n(Cc3ccc(C(F)(F)F)cc3)c12)C1CCC1 (stereo partly drawn) [Example 9.67, 3-(6-{[(1R)-1-cyclobutylethyl]amino}-8-(2-phenylpiperidin-1-yl)-7-[4-(trifluoromethyl)benzyl]-7H-purin-2-yl)-1,2,4-oxadiazol-5(4H)-one] | 12.7 nM
26 | C[C@@H](Nc1nc(C(=O)O)nc2nc(N3CCCCC3Cc3cccc(C(F)(F)F)c3)n(Cc3ccc(C(F)(F)F)cc3)c12)C1CCC1 (stereo partly drawn) [Example 9.68, 6-{[(1R)-1-cyclobutylethyl]amino}-7-[4-(trifluoromethyl)benzyl]-8-{2-[3-(trifluoromethyl)benzyl]piperidin-1-yl}-7H-purine-2-carboxylic acid] | 110 nM
27 | C[C@@H](Nc1nc(C(=O)O)nc2nc(N3CCCCC3Cc3ccc(F)cc3)n(Cc3ccc(C(F)(F)F)cc3)c12)C1CCC1 (stereo partly drawn) [Example 9.69, 6-{[(1R)-1-cyclobutylethyl]amino}-8-[2-(4-fluorobenzyl)piperidin-1-yl]-7-[4-(trifluoromethyl)benzyl]-7H-purine-2-carboxylic acid] | 7.92 nM
28 | COc1ccc(C2CCCCN2c2nc3nc(C(=O)O)nc(N[C@H](C)C4CCC4)c3n2Cc2ccc(C(F)(F)F)cc2)cc1 (stereo partly drawn) [Example 9.70, 6-{[(1R)-1-cyclobutylethyl]amino}-8-[2-(4-methoxyphenyl)piperidin-1-yl]-7-[4-(trifluoromethyl)benzyl]-7H-purine-2-carboxylic acid] | 9.29 nM
